According to the kinase profiling compilation of Christmann-Franck et al. (2016):

Columns and labels:
Assay in all cases: radiometric filter-binding kinase assay, Kinase HotSpot
Conditions in all cases: compound 0.5 µM; ATP 10 µM
BMX (human) = BMX (human) (UniProt P51813)
NEK1 (human) = NEK1 (human) (UniProt Q96PY6)
STK38 (human) = STK38 (human) (UniProt Q15208)
DAPK2 (human) = DAPK2 (human) (UniProt Q9UIK4)
ROCK1 (human) = ROCK1 (human) (UniProt Q13464)
ULK3 (human) = ULK3 (human) (UniProt Q6PHR2)
DYRK2 (human) = DYRK2 (human) (UniProt Q92630)
GSK3B (human) = GSK3B (human) (UniProt P49841)
STK3 (human) = STK3 (human) (UniProt Q13188)
STK3 (human), sequence (Q13188 whole entry, looked up): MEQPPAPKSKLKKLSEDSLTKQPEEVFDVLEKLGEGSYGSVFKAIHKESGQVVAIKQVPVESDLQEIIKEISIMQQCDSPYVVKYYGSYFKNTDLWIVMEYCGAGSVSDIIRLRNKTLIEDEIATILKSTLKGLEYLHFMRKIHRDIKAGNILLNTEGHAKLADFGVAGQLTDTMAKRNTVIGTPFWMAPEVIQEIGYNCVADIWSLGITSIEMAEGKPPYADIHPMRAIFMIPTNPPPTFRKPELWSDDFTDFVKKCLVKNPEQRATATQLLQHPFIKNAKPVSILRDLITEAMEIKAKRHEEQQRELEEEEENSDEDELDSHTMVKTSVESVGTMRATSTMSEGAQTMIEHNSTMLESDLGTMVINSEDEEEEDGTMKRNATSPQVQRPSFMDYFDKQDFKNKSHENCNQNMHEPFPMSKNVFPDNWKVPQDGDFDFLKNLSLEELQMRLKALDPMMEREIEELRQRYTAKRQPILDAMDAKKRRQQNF

IGF1R (human) = IGF1R (human) (UniProt P08069)
IGF1R (human), sequence (P08069 whole entry, looked up): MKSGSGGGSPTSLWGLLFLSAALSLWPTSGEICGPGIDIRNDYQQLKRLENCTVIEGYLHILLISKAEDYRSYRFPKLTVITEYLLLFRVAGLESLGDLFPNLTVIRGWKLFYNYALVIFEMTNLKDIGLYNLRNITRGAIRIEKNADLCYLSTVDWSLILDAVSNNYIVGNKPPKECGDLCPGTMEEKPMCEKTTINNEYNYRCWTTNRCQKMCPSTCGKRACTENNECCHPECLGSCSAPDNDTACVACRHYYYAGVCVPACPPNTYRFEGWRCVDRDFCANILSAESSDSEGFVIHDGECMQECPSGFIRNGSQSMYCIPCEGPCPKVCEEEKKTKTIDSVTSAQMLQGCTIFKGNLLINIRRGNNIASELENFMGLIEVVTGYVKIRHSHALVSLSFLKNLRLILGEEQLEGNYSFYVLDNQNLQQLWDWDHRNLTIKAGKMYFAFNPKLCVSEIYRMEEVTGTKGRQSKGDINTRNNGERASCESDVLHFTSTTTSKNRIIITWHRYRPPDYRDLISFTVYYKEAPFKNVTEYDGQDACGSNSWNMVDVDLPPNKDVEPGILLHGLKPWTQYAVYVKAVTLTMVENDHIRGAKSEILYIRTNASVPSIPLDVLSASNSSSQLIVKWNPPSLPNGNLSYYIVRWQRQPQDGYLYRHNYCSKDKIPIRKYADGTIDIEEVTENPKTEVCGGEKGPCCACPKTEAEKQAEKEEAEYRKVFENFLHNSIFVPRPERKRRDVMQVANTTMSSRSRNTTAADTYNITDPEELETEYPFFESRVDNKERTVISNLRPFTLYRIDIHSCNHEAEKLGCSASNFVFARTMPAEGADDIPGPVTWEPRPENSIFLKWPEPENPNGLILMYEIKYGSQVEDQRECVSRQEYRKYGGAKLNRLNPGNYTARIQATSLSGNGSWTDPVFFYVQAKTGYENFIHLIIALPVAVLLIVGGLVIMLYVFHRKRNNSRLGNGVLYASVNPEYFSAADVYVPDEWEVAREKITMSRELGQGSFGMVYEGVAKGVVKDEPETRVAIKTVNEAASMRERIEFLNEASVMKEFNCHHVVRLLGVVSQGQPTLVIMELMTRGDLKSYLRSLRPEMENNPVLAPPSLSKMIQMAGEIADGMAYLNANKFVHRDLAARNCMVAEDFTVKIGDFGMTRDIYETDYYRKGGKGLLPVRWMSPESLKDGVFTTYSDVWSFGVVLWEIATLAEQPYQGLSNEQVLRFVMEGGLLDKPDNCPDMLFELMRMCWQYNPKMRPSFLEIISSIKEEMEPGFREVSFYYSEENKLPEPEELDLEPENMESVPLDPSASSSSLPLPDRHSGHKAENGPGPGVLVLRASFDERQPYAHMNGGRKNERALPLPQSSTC

ACVR1B (human) = ACVR1B (human) (UniProt P36896)
ACVR1B (human), sequence (P36896 whole entry, looked up): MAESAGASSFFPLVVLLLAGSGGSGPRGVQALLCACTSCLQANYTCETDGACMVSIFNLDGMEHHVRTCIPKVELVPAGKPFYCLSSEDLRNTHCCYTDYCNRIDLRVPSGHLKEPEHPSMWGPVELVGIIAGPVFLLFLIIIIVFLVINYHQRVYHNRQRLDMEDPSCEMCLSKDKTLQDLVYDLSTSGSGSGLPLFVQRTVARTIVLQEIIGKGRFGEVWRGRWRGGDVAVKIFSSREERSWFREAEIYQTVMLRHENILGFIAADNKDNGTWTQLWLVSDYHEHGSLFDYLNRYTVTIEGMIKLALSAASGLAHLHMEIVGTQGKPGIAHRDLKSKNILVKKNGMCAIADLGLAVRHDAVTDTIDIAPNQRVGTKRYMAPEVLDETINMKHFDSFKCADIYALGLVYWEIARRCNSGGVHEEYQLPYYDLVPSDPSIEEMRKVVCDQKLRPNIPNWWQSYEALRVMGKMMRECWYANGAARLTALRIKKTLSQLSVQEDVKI

TLK2 (human) = TLK2 (human) (UniProt Q86UE8)
EPHA7 (human) = EPHA7 (human) (UniProt Q15375)
EPHA5 (human) = EPHA5 (human) (UniProt P54756)
YES1 (human) = YES1 (human) (UniProt P07947)
YES1 (human), sequence (P07947 whole entry, looked up): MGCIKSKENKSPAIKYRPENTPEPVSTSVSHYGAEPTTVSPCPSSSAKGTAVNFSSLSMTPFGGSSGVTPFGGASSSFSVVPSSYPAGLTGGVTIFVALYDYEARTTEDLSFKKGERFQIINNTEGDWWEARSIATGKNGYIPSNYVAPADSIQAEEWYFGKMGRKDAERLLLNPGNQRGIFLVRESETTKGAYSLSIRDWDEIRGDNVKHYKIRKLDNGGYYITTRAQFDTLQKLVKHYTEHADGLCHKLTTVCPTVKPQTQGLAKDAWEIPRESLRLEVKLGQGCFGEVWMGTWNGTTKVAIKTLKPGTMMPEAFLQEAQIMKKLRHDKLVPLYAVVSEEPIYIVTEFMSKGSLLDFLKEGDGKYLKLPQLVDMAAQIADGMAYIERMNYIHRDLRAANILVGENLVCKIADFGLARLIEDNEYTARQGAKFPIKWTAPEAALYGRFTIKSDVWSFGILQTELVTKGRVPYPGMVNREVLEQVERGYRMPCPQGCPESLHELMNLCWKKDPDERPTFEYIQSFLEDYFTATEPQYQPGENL

FLT3 (human) = FLT3 (human) (UniProt P36888)
CAMK1 (human) = CAMK1 (human) (UniProt Q14012)
IKBKE (human) = IKBKE (human) (UniProt Q14164)
MAPKAPK3 (human) = MAPKAPK3 (human) (UniProt Q16644)
MAPKAPK3 (human), sequence (Q16644 whole entry, looked up): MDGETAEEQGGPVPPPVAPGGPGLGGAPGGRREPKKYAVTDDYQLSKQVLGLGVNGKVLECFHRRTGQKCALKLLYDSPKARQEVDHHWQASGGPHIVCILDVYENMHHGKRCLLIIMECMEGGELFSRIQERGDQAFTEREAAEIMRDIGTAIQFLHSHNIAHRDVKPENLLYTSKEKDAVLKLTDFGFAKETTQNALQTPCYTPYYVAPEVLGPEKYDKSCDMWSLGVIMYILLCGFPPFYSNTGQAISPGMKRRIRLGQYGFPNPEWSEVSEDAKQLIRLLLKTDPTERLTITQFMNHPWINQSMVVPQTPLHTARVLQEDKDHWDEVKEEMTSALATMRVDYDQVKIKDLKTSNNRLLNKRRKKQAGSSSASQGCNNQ

CDK2 CCNE1 (human) = CDK2 CCNE1 (human) (UniProt P24941+P24864)
CDK2 CCNE1 (human), sequence (P24864 whole entry, looked up, other chains not shown): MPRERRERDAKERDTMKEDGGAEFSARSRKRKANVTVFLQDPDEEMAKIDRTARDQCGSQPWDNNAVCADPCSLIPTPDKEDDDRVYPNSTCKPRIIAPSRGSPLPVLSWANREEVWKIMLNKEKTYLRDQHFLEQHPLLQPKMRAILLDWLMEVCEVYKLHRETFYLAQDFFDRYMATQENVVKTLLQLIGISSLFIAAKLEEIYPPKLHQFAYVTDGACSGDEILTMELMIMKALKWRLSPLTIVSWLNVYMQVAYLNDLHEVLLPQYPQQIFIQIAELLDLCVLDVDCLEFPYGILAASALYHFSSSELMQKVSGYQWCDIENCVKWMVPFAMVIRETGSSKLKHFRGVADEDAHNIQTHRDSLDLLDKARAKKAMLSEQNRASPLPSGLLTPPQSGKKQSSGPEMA

ADRBK1 (human) = ADRBK1 (human) (UniProt P25098)
FGFR1 (human) = FGFR1 (human) (UniProt P11362)
MYO3B (human) = MYO3B (human) (UniProt Q8WXR4)
FRK (human) = FRK (human) (UniProt P42685)
PRKCD (human) = PRKCD (human) (UniProt Q05655)
PIM1 (human) = PIM1 (human) (UniProt P11309)
GRK4 (human) = GRK4 (human) (UniProt P32298)
PRKCG (human) = PRKCG (human) (UniProt P05129)
PRKACG (human) = PRKACG (human) (UniProt P22612)
DMPK (human) = DMPK (human) (UniProt Q09013)
PAK7 (human) = PAK7 (human) (UniProt Q9P286)
SYK (human) = SYK (human) (UniProt P43405)
RPS6KA2 KD1 KD2 (human) = RPS6KA2 KD1 KD2 (human) (UniProt Q15349)
EPHB4 (human) = EPHB4 (human) (UniProt P54760)
INSR (human) = INSR (human) (UniProt P06213)
EPHA6 (human) = EPHA6 (human) (UniProt Q9UF33)
MAP3K11 (human) = MAP3K11 (human) (UniProt Q16584)
MAP3K5 (human) = MAP3K5 (human) (UniProt Q99683)
AURKC (human) = AURKC (human) (UniProt Q9UQB9)
BRAF (human) = BRAF (human) (UniProt P15056)

DAPK2 (human), sequence (Q9UIK4 whole entry, looked up): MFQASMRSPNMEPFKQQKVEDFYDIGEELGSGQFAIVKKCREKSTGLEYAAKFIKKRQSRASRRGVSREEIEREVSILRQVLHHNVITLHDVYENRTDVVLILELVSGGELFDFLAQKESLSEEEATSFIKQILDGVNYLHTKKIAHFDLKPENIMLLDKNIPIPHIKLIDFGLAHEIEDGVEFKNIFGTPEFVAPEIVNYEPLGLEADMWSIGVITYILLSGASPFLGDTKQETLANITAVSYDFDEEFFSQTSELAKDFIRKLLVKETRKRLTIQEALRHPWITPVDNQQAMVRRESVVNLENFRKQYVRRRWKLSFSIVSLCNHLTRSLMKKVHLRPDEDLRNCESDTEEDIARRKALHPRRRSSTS

Row | SMILES | residual activity (BMX (human)) [%] | residual activity (NEK1 (human)) [%] | residual activity (DAPK2 (human)) [%] | residual activity (ROCK1 (human)) [%] | residual activity (DYRK2 (human)) [%] | residual activity (GSK3B (human)) [%] | residual activity (STK3 (human)) [%] | residual activity (IGF1R (human)) [%] | residual activity (ACVR1B (human)) [%] | residual activity (EPHA7 (human)) [%] | residual activity (EPHA5 (human)) [%] | residual activity (YES1 (human)) [%] | residual activity (FLT3 (human)) [%] | residual activity (CAMK1 (human)) [%] | residual activity (IKBKE (human)) [%] | residual activity (MAPKAPK3 (human)) [%] | residual activity (CDK2 CCNE1 (human)) [%] | residual activity (ADRBK1 (human)) [%] | residual activity (FGFR1 (human)) [%] | residual activity (FRK (human)) [%] | further results
1 | Oc1ccc(Nc2nc(-c3ccc(Cl)cc3)cs2)cc1 | 103 | 104 | 107 | 103 | 91.2 | 110 | 114 | 102 | 89.5 | 97.7 | 92.6 | 99.2 | 99 | 111 | 95.9 | 94.1 | 91.9 | 100 | 82.5 | 106 | residual activity (STK38 (human)): 98.2%; residual activity (ULK3 (human)): 94.4%; residual activity (TLK2 (human)): 121%; residual activity (MYO3B (human)): 98.7%; residual activity (PRKCD (human)): 86.9%; residual activity (PIM1 (human)): 103%; residual activity (GRK4 (human)): 90.5%; residual activity (PRKCG (human)): 87.3%; residual activity (PRKACG (human)): 112%; residual activity (DMPK (human)): 102%; residual activity (PAK7 (human)): 105%; residual activity (SYK (human)): 93.8%; residual activity (RPS6KA2 KD1 KD2 (human)): 101%; residual activity (EPHB4 (human)): 89.6%; residual activity (INSR (human)): 88.9%; residual activity (EPHA6 (human)): 101%; residual activity (MAP3K11 (human)): 95.3%; residual activity (MAP3K5 (human)): 108%; residual activity (AURKC (human)): 97%
2 | CCn1cnc2c(Nc3cccc(Cl)c3)nc(N[C@@H]3CCCC[C@@H]3N)nc21 | 90.7 | 95 | 99 | 96.5 | 107 | 104 | 83.9 | 51.8 | 110 | 87.6 | 73.9 | 35.4 | 12.7 | 103 | 99.5 | 91.3 | 16.8 | 96.5 | 85.7 | 87.7 | residual activity (BRAF (human)): 93%; residual activity (PRKCD (human)): 91.2%; residual activity (PIM1 (human)): 83.8%; residual activity (GRK4 (human)): 96.2%; residual activity (PRKCG (human)): 95%; residual activity (DMPK (human)): 99.7%; residual activity (PAK7 (human)): 64.7%; residual activity (SYK (human)): 98.4%; residual activity (RPS6KA2 KD1 KD2 (human)): 45.1%; residual activity (EPHB4 (human)): 70.8%; residual activity (INSR (human)): 91.3%; residual activity (MAP3K11 (human)): 77.6%; residual activity (MAP3K5 (human)): 103%; residual activity (AURKC (human)): 94.5%
3 | Nc1nnc2[nH]c3ccccc3nc1-2 | 99.5 | 91.7 | 91 | 99 | 91.6 | 99.7 | 88.9 | 97.5 | 99.9 | 95.3 | 90.3 | 97.1 | 75.9 | 94.4 | 99.4 | 101 | 85.5 | 101 | 93.9 | 96.8 | residual activity (BRAF (human)): 102%; residual activity (PRKCD (human)): 98.3%; residual activity (PIM1 (human)): 94%; residual activity (GRK4 (human)): 98.9%; residual activity (PRKCG (human)): 97.3%; residual activity (DMPK (human)): 98.4%; residual activity (PAK7 (human)): 98.4%; residual activity (SYK (human)): 100%; residual activity (RPS6KA2 KD1 KD2 (human)): 89.1%; residual activity (EPHB4 (human)): 84.9%; residual activity (INSR (human)): 95.3%; residual activity (MAP3K11 (human)): 96.3%; residual activity (MAP3K5 (human)): 103%; residual activity (AURKC (human)): 90.8%
4 | Cn1nc2c3c(cccc31)C(=O)c1ccccc1-2 | 101 | 78.3 | 104 | 98.4 | 99.4 | 94 | 88.4 | 95.9 | 102 | 104 | 126 | 94.5 | 59.3 | 104 | 92.3 | 104 | 89.4 | 103 | 99.5 | 94.3 | residual activity (STK38 (human)): 98.5%; residual activity (ULK3 (human)): 94.9%; residual activity (TLK2 (human)): 101%; residual activity (MYO3B (human)): 97.7%; residual activity (PRKCD (human)): 92.3%; residual activity (PIM1 (human)): 80.3%; residual activity (GRK4 (human)): 105%; residual activity (PRKCG (human)): 90.6%; residual activity (PRKACG (human)): 107%; residual activity (DMPK (human)): 107%; residual activity (PAK7 (human)): 102%; residual activity (SYK (human)): 94.8%; residual activity (RPS6KA2 KD1 KD2 (human)): 93.5%; residual activity (EPHB4 (human)): 99.9%; residual activity (INSR (human)): 99.5%; residual activity (EPHA6 (human)): 87.6%; residual activity (MAP3K11 (human)): 97.2%; residual activity (MAP3K5 (human)): 93.1%; residual activity (AURKC (human)): 89.3%
5 | CN([C@@H](Cc1ccc(OS(=O)(=O)c2cccc3cnccc23)cc1)C(=O)N1CCN(c2ccccc2)CC1)S(=O)(=O)c1cccc2cnccc12 | 97.4 | 102 | 99.7 | 97.9 | 97.7 | 96.6 | 98.8 | 105 | 98.7 | 102 | 102 | 110 | 103 | 105 | 92.6 | 101 | 94.9 | 97.5 | 103 | 101 | residual activity (STK38 (human)): 97.2%; residual activity (ULK3 (human)): 98.6%; residual activity (TLK2 (human)): 100%; residual activity (MYO3B (human)): 88.5%; residual activity (PRKCD (human)): 93%; residual activity (PIM1 (human)): 106%; residual activity (GRK4 (human)): 96.5%; residual activity (PRKCG (human)): 95.4%; residual activity (PRKACG (human)): 107%; residual activity (DMPK (human)): 108%; residual activity (PAK7 (human)): 103%; residual activity (SYK (human)): 98.7%; residual activity (RPS6KA2 KD1 KD2 (human)): 102%; residual activity (INSR (human)): 98.8%; residual activity (EPHA6 (human)): 94.9%; residual activity (MAP3K11 (human)): 105%; residual activity (MAP3K5 (human)): 99.2%; residual activity (AURKC (human)): 98.2%
